From US20210145775A1, “Treatment of intestinal barrier dysfunction and associated diseases” (CymaBay Therapeutics, Inc., priority 2019, published 2021)

What was measured:
[1] = test system: male RAG2−/− mice on C57BL/6 background; assay: Preclinical adoptive T-cell transfer colitis; assay type: in vivo; conditions: 10 mg/Kg/day in drinking water, day 14 to day 42
From the text: The cell donor animals are male C57BL/6 mice and the recipient animals are male RAG2^−/− mice on C57BL/6 background, aged 6-8 weeks at the start of the study. Recipient animals (20 +12 per test compound) are assigned: 5 to form a control group receiving no cell transfer or treatment, and the remainder to receive cell transfer. At day 0, the donor animals are sacrificed and spleens excised, dissociated to a single cell suspension, and the red blood cells lysed. The cell suspension is enriched for CD4+ T cells using a Miltenyi CD4+ T cell isolation kit, then further enriched for naïve CD4+ T cells using a Miltenyi naïve CD4+ T cell isolation kit. […] The animals are weighed daily and assessed visually for presence and severity of diarrhea and bloody stools, with video endoscopy on days 14, 28, and 42 to assess the severity of the colitis and score stool consistency. All animals are sacrificed at day 42 following endoscopy and samples collected: blood is collected and processed for plasma, the colon is excised, measured, rinsed, weighed, and trimmed to the most distal 5 cm, of this distal and proximal 2 cm portions are placed in formalin for histological evaluation, while the central 1 cm is snap-frozen in liquid nitrogen, and stored for analysis; and the liver is excised, weighed, snap-frozen in liquid nitrogen, and stored for analysis.

[2] = target: T1, PPARα (Homo sapiens, UniProt Q07869); conditions: cited from earlier work
T1 sequence (Q07869 1-468): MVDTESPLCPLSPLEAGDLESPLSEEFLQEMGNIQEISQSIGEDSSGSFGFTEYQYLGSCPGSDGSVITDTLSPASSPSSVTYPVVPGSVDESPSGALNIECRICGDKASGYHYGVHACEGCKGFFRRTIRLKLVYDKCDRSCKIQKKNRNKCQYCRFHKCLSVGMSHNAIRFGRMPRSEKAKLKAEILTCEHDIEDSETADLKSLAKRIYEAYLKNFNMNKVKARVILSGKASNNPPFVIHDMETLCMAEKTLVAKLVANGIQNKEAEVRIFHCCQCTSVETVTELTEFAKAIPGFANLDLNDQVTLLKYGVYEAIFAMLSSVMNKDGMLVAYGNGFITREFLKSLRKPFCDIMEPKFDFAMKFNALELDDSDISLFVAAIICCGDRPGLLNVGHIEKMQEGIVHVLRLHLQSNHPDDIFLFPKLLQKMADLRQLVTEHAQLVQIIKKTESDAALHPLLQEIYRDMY

[3] = test system: wild-type female C57BL/6 mice; assay: Preclinical Lieber-DeCarli ethanol diet mouse model (alcoholic liver disease / intestinal barrier function); assay type: in vivo
From the text: Age-matched wild-type female C57BL/6 mice (Charles River, Wilmington, Mass.), 8-9 weeks old at the initiation of the study, were used.
The Lieber-DeCarli ethanol diet was originally developed by Charles Lieber and Leonore DeCarli in 1963. This diet allows for the prolonged exposure of ethanol in a rodent model and allows for modification to calories provided by ethanol. […] The caloric intake from ethanol was 0% on day 1, 10% on days 2 and 3, 20% on days 4 and 5, 30% from day 6 until the end of 6 weeks, and 36% for the last 2 weeks, for a total in-life time of eight weeks. The ethanol-fed mice also received one bolus dose of 33% v/v ethanol at 5 g/Kg on the last in-life day. The control diet contained an isocaloric substitution of isomaltose for the ethanol. […] In the prevention portions of the study, including with the control diet, seladelpar was added throughout the entire study period; in the intervention portion of the study, seladelpar was added only for the fifth through eighth weeks. Fresh feces were collected at 7.5 weeks. All mice were sacrificed after eight weeks; the ethanol-fed mice eight hours after the ethanol bolus. At sacrifice, body and liver weight were recorded; and blood/plasma, liver, gallbladder, small and large intestine (wall and contents) and cecum were harvested. Analyses included plasma ALT—to measure […]; hepatic TGs; plasma lipopolysaccharides (LPS)—to measure the extent of bacterial leakage from the intestine into the blood; fecal albumin (FA)—to measure the extent of albumin leakage from the blood into the intestine (feces); and total bile acids, measured by liquid chromatography-mass spectrometry (LC-MS) generally according to the method described in Hartmann et al., “Modulation of the Intestinal Bile Acid/Farnesoid X Receptor/Fibroblast Growth Factor 15 Axis Improves Alcoholic Liver Disease in Mice”, Hepatology, 67(6), 2150-2166 (2018).
The study results are given in the table below: standard errors of the means are in parentheses, n denotes the number of mice measured, and ANOVA denotes the significance value of an ANOVA analysis between groups 3, 4, and 5:
Formalin-fixed liver sections were stained for histological examination with hematoxylin and eosin (H+E).

[4] = test system: atherogenic diet-fed obese diabetic (Alms1 mutant (foz/foz)) mice; conditions: cited from earlier work
[5] = test system: Subjects with diagnosed irritable bowel syndrome (IBS); assay: Clinical (oral) treatment of irritable bowel syndrome; assay type: in vivo, human
Procedure: The subjects keep a health diary in which their symptoms of irritable bowel syndrome are recorded.

[6] = alcohol diet, groups 4 and 5 vs untreated group 3, ANOVA

SMILES: CCO[C@H](COc1ccc(C(F)(F)F)cc1)CSc1ccc(OCC(=O)O)c(C)c1 [seladelpar]
- colitis (body weight, endoscopic and histologic examination) [1]: ameliorates the colitis
- specificity for PPARδ compared with PPARα [2]: > 600 fold
- liver histology (H+E) ([3]; alcohol diet, prevention and intervention, comparing group 3 with groups 4 and 5): significant reduction of steatosis and restoration of a more normal architecture
- serum ALT, change versus untreated ([3]; alcohol diet, groups 4 and 5 (prevention and intervention) vs untreated group 3, ANOVA): significant reductions (improvements)
- fecal albumin, change versus untreated [3, 6]: significant reduction (improvement)
- hepatic TGs, change versus untreated [3, 6]: significant reductions (improvements)
- serum LPS, change versus untreated [3, 6]: significant reductions (improvements)
- total bile acids, change versus untreated [3, 6]: significant reductions (improvements)
- effect on ALT, hepatic TGs, plasma LPS, FA and total bile acids (any of the above parameters) ([3]; control diet groups, seladelpar prevention (group 2 vs group 1)): did not significantly affect
- liver histology (H+E) ([3]; control diet, comparing groups 1 and 2): no significant change
- NASH pathology (hepatic steatosis, inflammation, fibrosis) [4]: improves NASH pathology
- IBS symptoms recorded in health diary ([5]; 2, 5, 10, 20, 50 or 100 mg/day oral for 12 weeks): general improvement in their IBS symptoms
- improvement of disease (management of IBS, gastrointestinal symptoms) ([5]; 2-100 mg/day oral for 12 weeks): dose-related improvement in their disease
